Data as given in US20070191287A1, “D-ribose for improving depression-like symptoms” (priority 2004, published 2007).

Experiments:
mice = test: forced swimming test in mice; type: in vivo, mice (ddY-strain)
Procedure: Male 10 ddY-strain mice (5 weeks old, purchased from Japan SLC, Inc.) were used for each group as test animals. The animals were housed in groups of 20 mice in a plastic-made cage (26×43×16 cm; Clea Japan Inc.), and they were kept in the animal room maintained at 23±2° C. with 30 to 80% humidity, and illuminated for 12 hr (6:30 to 18:30). The animals were allowed free access to pellet diets (CRF-1, Oriental Yeast, Co., Ltd.), and tap water.
The experiment was carried out on the four groups, such as the groups treated with D-ribose at doses of 30 mg/kg, 100 mg/kg, 300 mg/kg, and the control group. The animals were grouped based on the body weights which had been previously measured prior to the experiment so that the average body weight of each group becomes equal. D-ribose was dissolved in distilled water and administered orally at 10 ml/kg once a day and repeatedly for one week in mice. To the control group, distilled water was administered orally instead of aqueous D-ribose solution. […] Briefly, the animals were forced to swim twice, i.e., for 15 minutes prior to the treatment of a test compound or distilled water on the day before the final administration, and further for 5 minutes one hour after the final administration on the following day. That is, the mice were forced to swim in a clear polycarbonate-made measuring cylinder (internal diameter: 10 cm, height: 25 cm) containing water up to a height of 10 cm at a temperature of 250° C., and the duration of the immobility during the second swimming was recorded.
The results were expressed as mean±standard error for each group. The significant differences between the groups were studied by Dunnett's multiple comparison test with a significance level of 5%.
Male10 ddY-strain male mice (5 weeks old, purchased from Japan SLC, Inc.) were used for each group as test animals. The animals were kept under the same conditions as in Example 1. The experiment was carried out on the four groups, such as the groups treated with D-ribose 100 mg/kg, potassium magnesium aspartate (Mg.K aspartate) 50 mg/kg, and D-ribose 100 mg/kg+Mg.K aspartate 50 mg/kg, and the control group. The animals were grouped based on the body weights which had been previously measured prior to the experiment so that the average body weight of each group becomes equal. D-ribose and potassium magnesium aspartate were dissolved in distilled water and administered orally at 10 ml/kg once a day and repeatedly for one week. […]
Male 10 ddY-strain mice (5 weeks old, purchased from Japan SLC, Inc.) were used for each group as test animals. The animals were grouped based on the body weights which had been previously measured prior to the experiment so that the average body weight of each group becomes equal. […]

[1] = system: reserpine-induced hypothermia; test: reserpine-induced hypothermia competitive test; type: in vivo, mice (ddY-strain)
Procedure: Male 8 ddY-strain mice (5 weeks old, purchased from Japan SLC, Inc.) were used for each group as test animals. The animals were kept under the same conditions as in Example 1. The experiment was carried out on the four groups such as the groups treated with D-ribose at doses of 30 mg/kg, 100 mg/kg, 300 mg/kg, and the control group. The animals were grouped based on the body temperature (rectal temperature) which had been previously measured prior to the experiment so that the average body temperature of each group becomes equal. D-ribose was dissolved in distilled water and administered orally at 10 ml/kg once a day and repeatedly for one week. To the control group, distilled water was administered orally instead of aqueous D-ribose solution. The reserpine-induced hypothermia competitive test was a modification of the method of Wachtel (cf., Neuropharmacology, 22 (3), p. 267-272 (1983)). Namely, a solution of reserpine (Daiichi Pharmaceutical Co. Ltd.) in an aqueous propylene glycol solution was subcutaneously administered to the mice in each group at a dose of 1 mg/kg (i.e., in an amount of 10 ml/kg) just before administration of a test compound or distilled water, and subsequently, D-ribose or distilled water were administered orally to the mice, and then the rectal temperature of each mouse was measured on 1, 2, 4, 6 and 8 hours after administration of D-ribose or distilled water. In the experiment, the reserpine treatment and the administration of the test compound were carried out during from 10:00 AM to 11:00 AM. The results were expressed as mean±standard error in each group. The significant differences between the groups were studied by Bonferroni/Dun multiple comparison test with a significance level of 5%. Male 8 ddY-strain mice (5 weeks old, purchased from Japan SLC, Inc.) were used for each group as test animals. The animals were kept under the same conditions as in Example 1. […] To the control group, distilled water was administered orally. The grouping, the administration of reserpine and the measurement of body temperature were carried out in the same manner as in Example 3. The results were expressed as mean±standard error for each group. The significant differences between the groups were studied by Bonferroni/Dunn multiple comparison test with a significance level of 5%.

rats = test: soaking fatigue test in rats; type: in vivo, rats (SD-strain); conditions: orally twice a day divided, 5 days
Procedure: Male 10 SD-strain rats (7 weeks old, purchased from Japan SLC, Inc.) were used for each group as test animals. The animals were grouped based on the body weights which had been previously measured prior to the experiment so that the average body weight of each group becomes equal. The animals were kept under the same conditions as in Example 1. The experiment was carried out on the 3 groups, such as the groups treated with D-ribose at doses of 300 mg/kg, 1000 mg/kg, and the control group. To the D-ribose-treated groups, D-ribose was dissolved in distilled water for injection in a predetermined amount for each body weight, and the resulting aqueous solution was mandatorily administered orally to the rats at a dose of 10 ml/kg. To the control group, distilled water for injection was mandatorily administered orally instead of aqueous D-ribose solution at a dose of 10 ml/kg.
The soaking fatigue test in rats was carried out by a modification of the method of Tanaka (cf., Igaku-no-Ayumi, 204 (5), 362-364 (2003)). Briefly, the rats in each group were kept in a cage where water at 23±1° C. was filled at a water depth of about 1.5 cm for 5 days, during which D-ribose was orally administered to the rats twice a day at 10 A.M. and 3 P.M. with divided amount of the daily dose (300 mg/kg or 1000 mg/kg), i.e., at each time 150 mg/kg or 500 mg/kg, respectively, for 5 days in a row. Twenty-four hours after the last administration, the rats were loaded with a weight (about 20 g, about 8°% of the body weight) at a position of about ⅘ distant from the root. Each rat was forced to swim individually in a clear acrylic cylindrical water bath (inner diameter: 25 cm, height: 60 cm) containing warm water (25±2° C., water-depth: 50 cm). The time from the beginning of swimming until the nose of the rat sank down into the water for more than 10 seconds was measured.
The results were expressed as mean±standard error for each group. The significant differences between the groups were studied by Bonferroni/Dun multiple comparison test with a significance level of 5%.

human = test: evaluation of effect of maintaining concentration in human (random number table test); type: in vivo; conditions: healthy volunteers; D-ribose 2.2 g/day for 7 days, crossover vs dextrin control
Description: The effect of maintaining concentration by D-ribose in human can be evaluated by the test using a random number table (cf., Sports Mental Training for Winning Games, written by Yoshihide TAKAHATA, published by NATSUME CO, LTD., 2003).
Twenty healthy volunteers are grouped into two groups, i.e., the D-ribose 2.2 g/day-treated group, and the control group. The volunteers in the D-ribose 2.2 g/day-treated group take an aqueous solution of D-ribose (2.2 g), a roasted green tea extra (0.24 g) and sucralose (2 mg) in distilled water for injection per day. The volunteers in the control group take an aqueous solution of dextrin (2.2 g), a roasted green tea extra (0.24 g) and sucralose (2 mg) in distilled water per day. […]
The evaluation test for concentration power is carried out as follows. […] Then, the number of marked cells is compared between both groups and the concentration power is evaluated therefrom.
Further, after one-month washout period from the above evaluation test for concentration power, the volunteers in both groups are exchanged each other, and then the same test is carried out again on the volunteers. Combining the results of these two tests, the effect of maintaining concentration by D-ribose is comprehensively evaluated.

Row | Compound | duration of immobility (mice; Example 2, Mg.K aspartate 50 mg/kg alone, orally once a day for one week) | duration of immobility (mice; Comparative Example 1, D-ribose 100 mg/kg and 300 mg/kg orally for one week) | duration of immobility (mice; Example 1, 300 mg/kg orally once a day for one week, vs control group) | duration of immobility (mice; Example 2, D-ribose 100 mg/kg alone, orally once a day for one week) | reserpine-induced hypothermia (rectal temperature) ([1]; Example 3, 30 mg/kg orally once a day for one week, reserpine 1 mg/kg s.c.) | reserpine-induced hypothermia (rectal temperature) ([1]; Example 3, 100 mg/kg orally once a day for one week, 4 or 6 hours after administration) | reserpine-induced hypothermia (rectal temperature) ([1]; Example 3, 300 mg/kg orally once a day for one week, 4 or 6 hours after administration) | reserpine-induced hypothermia (rectal temperature) ([1]; Example 4, D-ribose alone 100 mg/kg orally, at 4 and 6 hours after treatment) | anti-fatigue effect (duration of swimming) (rats; 300 mg/kg daily dose, swim 24 h after last administration) | anti-fatigue effect (duration of swimming) (rats; 1000 mg/kg daily dose, stress-related fatigue caused by breeding under soaking) | duration of swimming longer than that in the control group (rats; 1000 mg/kg daily dose, swim 24 h after last administration) | concentration power (number of marked cells) (human)
1 | N[C@@H](CC(=O)O)C(=O)O.[K+].[Mg+2] [Mg.K aspartate, potassium magnesium aspartate] | not significantly reduced |  |  |  |  |  |  |  |  |  |  | 
2 | O=C[C@H](O)[C@H](O)[C@H](O)CO [D-ribose] |  | dose-depending reduction | significantly reduced | not significantly reduced | not significantly alleviated | significantly and nearly dose-relatively alleviated | significantly and nearly dose-relatively alleviated | significantly alleviated | any significant anti-fatigue effect was observed | significant anti-fatigue effect | about 70% | dominantly maintained
